Patent US7030134B2, “Pyrazolopyridinyl pyridine and pyrimidine therapeutic compounds” (SmithKline Beecham Corporation, priority 2001, dated 2006)
pIC50: −log10 of the molar value. Structures can show the parent of a compound that is named as a salt.

Test system: not given
Assay: not given
Details: not given

Row | Structure (SMILES) | melting point
1 | COc1cc(NC2CCCC2)n2nc(-c3ccc(F)cc3)c(-c3ccnc(NC4CCCC4)n3)c2c1 [Example 45, N-Cyclopentyl-3-[2-(cyclopentylamino)-4-pyrimidinyl]-2-(4-fluorophenyl)-5-methoxypyrazolo[1,5-a]pyridin-7-amine] | 167 to 169 °C

Test system: HSV-1
Assay: HSV-1 replication in infected Vero 76 cells, DNA hybridization capture assay
Type: cell-based, herpes simplex virus 1
Details: Human alphaherpesvirus 1, Vero 76
Description: Vero 76 cells were maintained in MEM with Earle's salts, L-glutamine, 8% FBS (Hyclone, A-1111-L) and 100 units/mL Penicillin-100 μg/mL Streptomycin. For assay conditions, FBS was reduced to 2%. Cells are seeded into 96-well tissue culture plates at a density of 5×10^4 cells/well after being incubated for 45 min at 37° C. in the presence of HSV-1 or HSV-2 (MOI=0.001). Test compounds are added to the wells and the plates are incubated at 37° C. for 40–48 hours. Cell lysates are prepared as follows: media was removed and replaced with 150 μL/well 0.2 N NaOH with 1% Igepal CA 630 or NP-40. Plates were incubated up to 14 days at room temperature in a humidified chamber to prevent evaporation.
For the detection probe, a gel-purified, digoxigenin-labeled, […] PCR fragment of the HSV UL-15 sequence was utilized. PCR conditions included 0.5 μM primers, 180 μM dTTP, 20 μM dUTP-digoxigenin (Boehringer Mannheim 1558706), 200 μM each of dATP, dCTP, and dGTP, 1×PCR Buffer II (Perkin Elmer), 2.5 mM MgCl2, 0.025 units/μL of AmpliTaq Gold polymerase (Perkin Elmer), and 5 ng of gel-purified HSV DNA per 100 μL. Extension conditions were 10 min at 95° C., followed by 30 cycles of 95° C. for 1 min, 55° C. for 30 sec, and 72° C. for 2 min. The amplification was completed with a 10-min incubation at 72° C. Primers were selected to amplify a 728 bp probe spanning a section of the HSV1 UL 15 open reading frame (nucleotides 249–977). Single-stranded transcripts were purified with Promega M13 Wizard kits. The final product was mixed 1:1 with a mixture of 6 M GuSCN, 100 mM EDTA and 200 μg/mL herring sperm DNA and stored at 4° C.
The capture DNA plasmid (HSV UL13 region in pUC) was linearized by cutting with Xba I, denatured for 15 min at 95° C. and diluted immediately into Reacti-Bind DNA Coating Solution (Pierce, 17250, diluted 1:1 with TE buffer, pH 8) at 1 ng/μL 75 μL/well were added to Corning (#3922 or 9690) white 96-well plates and incubated at room temperature for at least 4 hrs before washing twice with 300 μL/well 0.2×SSC/0.05% Tween-20 (SSC/T buffer). The plates were then incubated overnight at room temperature with 150 μL/well 0.2 N NaOH, 1% IGEPAL and 10 μg/mL herring sperm DNA.
Twenty-seven (27) μL of cell lysate was combined with 45 μL of hybridization solution (final concentration:3M GuSCN, 50 mM EDTA, 100 μg/ml salmon sperm DNA, 5× Denhardt's solution, 0.25×APE, and 5 ng of the digoxigenin-labeled detection probe). APE is 1.5 M NH4-acetate, 0.15 M NH4H2 phosphate, and 5 mM EDTA adjusted to pH 6.0. Mineral oil (50 μL) was added to prevent evaporation. The hybridization plates were incubated at 95° C. for 10 minutes to denature the DNA, then incubated at 42° C. overnight. The wells were washed 6× with 300 μL/well SSC/T buffer then incubated with 75 μL/well anti-digoxigenin-HRP-conjugated antibody (Boehringer Mannheim 1207733, 1:5000 in TE) for 30 min at room temperature. The wells were washed 6× with 300 μL/well with PBS/0.05% Tween-20 before 75 μL/well SuperSignal LBA substrate (Pierce) was added. The plates were incubated at room temperature for 30 minutes and chemiluminescence was measured in a Wallac Victor reader.
The following results were obtained for HSV-1.

Row | Structure (SMILES) | pIC50
2 | [H]/N=C(/Nc1cc(Cl)cc2c(-c3ccnc(NC4CCCC4)n3)c(-c3ccc(F)cc3)nn12)NC1CCCC1 [Example 26, N-[5-Chloro-3-[2-(cyclopentylamino)pyrimidin-4-yl]-2-(4-fluorophenyl)pyrazolo[1,5-a]pyridin-7-yl]-N′-cyclopentylguanidine hydrochloride] | 6.59

Same assay, conditions: Human alphaherpesvirus 1; HSV-1 (MOI=0.001) in Vero 76 cells, 40–48 hours incubation, HSV DNA hybridization chemiluminescence readout; read-out: IC50

Row | Structure (SMILES) | pIC50
3 | Fc1ccc(-c2nn3c(N4CCCCC4)cc(Cl)cc3c2-c2ccnc(NC3CCCC3)n2)cc1 [Example 24, 4-[5-Chloro-2-(4-fluorophenyl)-7-(1-piperidinyl)pyrazolo[1,5-a]pyridin-3-yl]-N-cyclopentyl-2-pyrimidinamine] | 6.92
4 | Fc1ccc(-c2nn3c(N4CCOCC4)cc(Cl)cc3c2-c2ccnc(NC3CCCC3)n2)cc1 [Example 25, 4-[5-Chloro-2-(4-fluorophenyl)-7-(4-morpholinyl)pyrazolo[1,5-a]pyridin-3-yl]-N-cyclopentyl-2-pyrimidinamine] | 6.72
5 | Clc1cccc(-c2nn3c(Cl)cc(Cl)cc3c2-c2ccnc(NC3CCCC3)n2)c1 [Example 28, N-cyclopentyl-4-[5,7-dichloro-2-(3-chlorophenyl)pyrazolo[1,5-a]pyridin-3-yl]-2-pyrimidinamine] | 5.46
6 | Clc1cccc(-c2nn3c(NC4CCCC4)cc(Cl)cc3c2-c2ccnc(NC3CCCC3)n2)c1 [Example 29, N-{4-[5-chloro-2-(3-chlorophenyl)-7-(cyclopentylamino)pyrazolo[1,5-a]pyridin-3-yl]-2-pyrimidinyl}-N-cyclopentylamine] | 6.46
7 | Clc1cc(NC2CCCC2)n2nc(-c3ccc(OCC4CC4)cc3)c(-c3ccnc(NC4CCCC4)n3)c2c1 [Example 34, 5-Chloro-3-[2-(cyclopentylamino)-4-pyrimidinyl]-N-cyclopentyl-2-[4-(cyclopropylmethoxy)phenyl]pyrazolo[1,5-a]pyridin-7-amine] | 6.92
8 | COc1ccc(-c2nn3c(Cl)cc(Cl)cc3c2-c2ccnc(SC)n2)cc1 [Example 35, 5,7-dichloro-2-(4-methoxyphenyl)-3-[2-(methylthio)pyrimidin-4-yl]pyrazolo[1,5-a]pyridine] | < 4.40
9 | COc1ccc(-c2nn3c(NC4CCCC4)cc(Cl)cc3c2-c2ccnc(SC)n2)cc1 [Example 36, N-{5-Chloro-2-(4-methoxyphenyl)-3-[2-(methylsulfanyl)-4-pyrimidinyl]pyrazolo[1,5-a]pyridin-7-yl}-N-cyclopentylamine] | 4.66
10 | COc1ccc(-c2nn3c(NC4CCCC4)cc(Cl)cc3c2-c2ccnc([S+](C)[O-])n2)cc1 (stereo not drawn) [Example 37, N-{5-Chloro-2-(4-methoxyphenyl)-3-[2-(methylsulfinyl)-4-pyrimidinyl]pyrazolo[1,5-a]pyridin-7-yl}-N-cyclopentylamine] | 5.22
11 | Fc1ccc(-c2nn3c(Cl)cc(NC4CCCC4)cc3c2-c2ccnc(NC3CCCC3)n2)cc1 [Example 41, 7-Chloro-N-cyclopentyl-3-[2-(cyclopentylamino)pyrimidin-4-yl]-2-(4-fluorophenyl)pyrazolo[1,5-a]pyridin-5-amine] | 5.89
12 | Fc1ccc(-c2nn3c(NC4CCCC4)c(Br)cc(Br)c3c2-c2ccnc(NC3CCCC3)n2)cc1 [Example 42, 4,6-Dibromo-N-cyclopentyl-3-[2-(cyclopentylamino)pyrimidin-4-yl]-2-(4-fluorophenyl)pyrazolo[1,5-a]pyridin-7-amine] | 4.70
13 | Fc1ccc(-c2nn3c(NC4CCCC4)c(Br)cc(Br)c3c2-c2nc(NC3CCCC3)ncc2Br)cc1 [Example 43, 4,6-Dibromo-3-[5-bromo-2-(cyclopentylamino)pyrimidin-4-yl]-N-cyclopentyl-2-(4-fluorophenyl)pyrazolo[1,5-a]pyridin-7-amine] | < 4.40
14 | Fc1ccc(-c2nn3c(NC4CCCC4)c(Cl)ccc3c2-c2ccnc(NC3CCCC3)n2)cc1 [Example 44, 6-Chloro-N-cyclopentyl-3-[2-(cyclopentylamino)pyrimidin-4-yl]-2-(4-fluorophenyl)pyrazolo[1,5-a]pyridin-7-amine] | 6.05
15 | COCCOc1cc(NC2CCCC2)n2nc(-c3ccc(F)cc3)c(-c3ccnc(NC4CCCC4)n3)c2c1 [Example 46, N-Cyclopentyl-3-[2-(cyclopentylamino)-4-pyrimidinyl]-2-(4-fluorophenyl)-5-(2-methoxyethoxy)pyrazolo[1,5-a]pyridin-7-amine] | 6.89

Now from value to compound:

Row | pIC50 | Structure (SMILES)
16 | 5.80 | Fc1ccc(-c2nn3c(NC4CC4)cc(Cl)cc3c2-c2ccnc(NC3CC3)n2)cc1 [Example 27, 5-Chloro-N-cyclopropyl-3-[2-(cyclopropylamino)pyrimidin-4-yl]-2-(4-fluorophenyl)pyrazolo[1,5-a]pyridin-7-amine]
17 | 6.48 | COc1ccc(-c2nn3c(NC4CC4)cc(Cl)cc3c2-c2ccnc(NC3CCCC3)n2)cc1 [Example 30, N-{4-[5-Chloro-7-(cyclopropylamino)-2-(4-methoxyphenyl)pyrazolo[1,5-a]pyridin-3-yl]-2-pyrimidinyl}-N-cyclopentylamine]
18 | 5.82 | Oc1ccc(-c2nn3c(NC4CC4)cc(Cl)cc3c2-c2ccnc(NC3CCCC3)n2)cc1 [Example 31, 4-[5-Chloro-3-[2-(cyclopentylamino)-4-pyrimidinyl]-7-(cyclopropylamino)pyrazolo[1,5-a]pyridin-2-yl]phenol]
19 | 6.10 | Clc1cc(NC2CC2)n2nc(-c3ccc(OCC4CC4)cc3)c(-c3ccnc(NC4CCCC4)n3)c2c1 [Example 32, 5-Chloro-3-[2-(cyclopentylamino)-4-pyrimidinyl]-N-cyclopropyl-2-[4-(cyclopropylmethoxy)phenyl]pyrazolo[1,5-a]pyridin-7-amine]
20 | 6.10 | Oc1ccc(-c2nn3c(NC4CCCC4)cc(Cl)cc3c2-c2ccnc(NC3CCCC3)n2)cc1 [Example 33, 4-[5-Chloro-3-[2-(cyclopentylamino)-4-pyrimidinyl]-7-(cyclopentylamino)pyrazolo[1,5-a]pyridin-2-yl]phenol]
21 | 6.47 | COc1ccc(-c2nn3c(NC4CCCC4)cc(Cl)cc3c2-c2ccnc(NC3CC3)n2)cc1 [Example 38, N-{4-[5-Chloro-7-(cyclopentylamino)-2-(4-methoxyphenyl)pyrazolo[1,5-a]pyridin-3-yl]-2-pyrimidinyl}-N-cyclopropylamine]
22 | 5.70 | Oc1ccc(-c2nn3c(NC4CCCC4)cc(Cl)cc3c2-c2ccnc(NC3CC3)n2)cc1 [Example 39, 4-{5-Chloro-7-(cyclopentylamino)-3-[2-(cyclopropylamino)-4-pyrimidinyl]pyrazolo[1,5-a]pyridin-2-yl}phenol]
23 | 5.89 | Clc1cc(NC2CCCC2)n2nc(-c3ccc(OCC4CC4)cc3)c(-c3ccnc(NC4CC4)n3)c2c1 [Example 40, N-(4-{5-Chloro-7-(cyclopentylamino)-2-[4-(cyclopropyl-methoxy)phenyl]pyrazolo[1,5-a]pyridin-3-yl}-2-pyrimidinyl)-N-cyclopropylamine]
24 | 6.82 | COc1cc(NC2CCCC2)n2nc(-c3ccc(F)cc3)c(-c3ccnc(NC4CCCC4)n3)c2c1 [Example 45, N-Cyclopentyl-3-[2-(cyclopentylamino)-4-pyrimidinyl]-2-(4-fluorophenyl)-5-methoxypyrazolo[1,5-a]pyridin-7-amine]
